Measured values taken from PubChem BioAssay AID1259411 (Chemical Carcinogenesis Research Information System (CCRIS), 2018).
Active and inactive are the calls of the source. No rule for the calls is given here.

Tested on: rodent carcinogenicity bioassays, tumor incidence
Assay: CCRIS carcinogenicity studies
How it was run: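 NCI-built, expert-reviewed records of carcinogenicity and related test outcomes (mutagenicity, tumor promotion/inhibition) compiled from published and report sources, historical span 1985-2011, not updated.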

[1] = Species: RAT, Route: ORAL, Tumor Site: Type of Lesion: LIVER

O=NN1CCCCCCC1
carcinogen call (Species: HAMSTER, Strain/Sex: EUROPEAN/FEMALE, Route: SUBCUTANEOUS, Dose: 11, 22, 44 MG/KG 3/WK, Dose: 11, 22, 44 MG/KG 3/WK, Tumor Site: Type of Lesion: LUNG: ADENOCARCINOMA, SQUAMOUS CELL CARCINOMA, NASAL CAVITY: SQUAMOUS CELL CARCINOMA): active; positive
carcinogen call (Species: HAMSTER, Strain/Sex: EUROPEAN/MALE, Route: SUBCUTANEOUS, Dose: 16.5, 33, 66 MG/KG 3/WK, Dose: 16.5, 33, 66 MG/KG 3/WK, Tumor Site: Type of Lesion: LUNG: ADENOCARCINOMA, SQUAMOUS CELL CARCINOMA, NASAL CAVITY: SQUAMOUS CELL CARCINOMA): active; positive
carcinogen call (Species: HAMSTER, Strain/Sex: SYRIAN/MALE, Route: ORAL, Dose: 50, 200 MG/L 5 NIGHT/WK FOR 50 WK IN DRINKING WATER, Tumor Site: Type of Lesion: NASAL CAVITY, LARYNX, PHARYNX, TRACHEA, ESOPHAGUS, FORESTOMACH, Tumor Site: Type of Lesion: NASAL CAVITY, LARYNX, PHARYNX, TRACHEA, ESOPHAGUS, FORESTOMACH): active; positive
carcinogen call (Species: RAT, Strain/Sex: LISTER/FEMALE, Route: SUBCUTANEOUS, Dose: 0, 1 MG 1/WK FOR 10 WK (STUDY DURATION: 104 WK)): inactive; negative
carcinogen call (Species: RAT, Strain/Sex: MRC/MALE,FEMALE, Route: ORAL, Dose: 100 MG/L 5 D/WK FOR 30 WK IN DRINKING WATER, Tumor Site: Type of Lesion: ESOPHAGUS, TRACHEA: SQUAMOUS CELL PAPILLOMA, LUNG: SQUAMOUS CELL CARCINOMA, Tumor Site: Type of Lesion: ESOPHAGUS, TRACHEA: SQUAMOUS CELL PAPILLOMA, LUNG: SQUAMOUS CELL CARCINOMA): active; positive

Cc1cc(Cc2ccc(N)c(C)c2)ccc1N
carcinogen call [1]: active; positive

N#[N+]c1ccccc1
carcinogen call (Species: MOUSE, Strain/Sex: SWISS/FEMALE, Route: GAVAGE, Dose: 0, 100 MG/KG BW 1X/WK FOR 52 WK (STUDY DURATION: 140 WK), Tumor Site: Type of Lesion: LUNG: TUMOR): active; positive
carcinogen call (Species: MOUSE, Strain/Sex: SWISS/FEMALE, Route: SUBCUTANEOUS, Dose: 0, 10 UG/G BW IN 0.01 ML OF 0.9% SALINE 1/WK FOR 26 WK (STUDY DURATION: 140WK), Tumor Site: Type of Lesion: SUBCUTANEOUS TISSUE: TUMOR): active; positive
carcinogen call (Species: MOUSE, Strain/Sex: SWISS/FEMALE, Route: SUBCUTANEOUS, Dose: 0, 25 MG/KG BW 1X/WK FOR 10 WK (STUDY DURATION: 130 WK)): inactive; negative
carcinogen call (Species: MOUSE, Strain/Sex: SWISS/MALE, Route: GAVAGE, Dose: 0, 100 MG/KG BW 1X/WK FOR 52 WK (STUDY DURATION: 130 WK), Tumor Site: Type of Lesion: LUNG: TUMOR): active; positive
carcinogen call (Species: MOUSE, Strain/Sex: SWISS/MALE, Route: SUBCUTANEOUS, Dose: 0, 10 UG/G BW IN 0.01 ML OF 0.9% SALINE 1/WK FOR 26 WK (STUDY DURATION: 140 WK), Tumor Site: Type of Lesion: SUBCUTANEOUS TISSUE: TUMOR): active; positive
carcinogen call (Species: MOUSE, Strain/Sex: SWISS/MALE, Route: SUBCUTANEOUS, Dose: 0, 25 MG/KG BW 1X/WK FOR 10 WK (STUDY DURATION: 120 WK)): inactive; negative

[O]=[Cr](=[O])([OH])[O][Cr](=[O])(=[O])[OH]
carcinogen call (Species: Mouse, Strain/Sex: B6C3F1/Female, Route: Oral, Dose: 0, 14.3, 57.3, 172, 516 mg/l of water, in drinking water for 2 yr (average daily dose of 0, 1.1, 3.9, 9, and 25 mg/kg), Tumor Site: Type of Lesion: Small intestine (duodenum, jejunum, ileum): Adenomas and carcinomas): active; positive, authors describe as clear evidence of carcinogenic activity
carcinogen call (Species: Mouse, Strain/Sex: B6C3F1/Male, Route: Oral, Dose: 0, 14.3, 28.6, 85.7, 257.4 mg/l of water, in drinking water for 2 yr (average daily dose of 0, 1.1, 2.6, 7, and 17 mg/kg, Tumor Site: Type of Lesion: Small intestine (duodenum, jejunum, ileum): Adenomas and carcinomas): active; positive, authors describe as clear evidence of carcinogenic activity
carcinogen call (Species: Rat, Strain/Sex: F344/N/Female, Route: Oral, Dose: 0, 14.3, 57.3, 172, 516 mg/l of water, in drinking water for 2 yr (average daily dose of 0, 0.7, 2.7, 7, and 20 mg/kg), Tumor Site: Type of Lesion: Mouth and tongue: Squamous cell papilloma and carcinoma): active; positive, authors describe as clear evidence of carcinogenic activity
carcinogen call (Species: Rat, Strain/Sex: F344/N/Male, Route: Oral, Dose: 0, 14.3, 57.3, 172, 516 mg/l of water, in drinking water for 2 yr (average daily dose of 0, 0.6, 2.2, 6, and 17 mg/kg), Tumor Site: Type of Lesion: Mouth and tongue: Squamous cell papilloma and carcinoma): active; positive, authors describe as clear evidence of carcinogenic activity

CN(C)/N=N/c1nc[nH]c1C(N)=O
carcinogen call (Species: RAT, Strain/Sex: BUFFALO/FEMALE, Route: ORAL, Dose: 0, 500, MG/KG IN DIET FOR 11 WK, Dose: 0, 500, MG/KG IN DIET FOR 11 WK, Tumor Site: Type of Lesion: MAMMARY GLAND: ADENOCARCINOMA, THYMUS GLAND: LYMPHOSARCOMA): active; positive
carcinogen call (Species: RAT, Strain/Sex: SPRAGUE-DAWLEY/FEMALE, Route: INTRAPERITONEAL, Dose: 0, 100, 250, 400 MG/RAT IN CITRATE-MANNITOL SOLN, Dose: 0, 100, 250, 400 MG/RAT IN CITRATE-MANNITOL SOLN, Tumor Site: Type of Lesion: MAMMARY GLAND: ADENOCARCINOMA): active; positive
carcinogen call (Species: RAT, Strain/Sex: SPRAGUE-DAWLEY/FEMALE, Route: ORAL, Dose: 346, 574, 740 MG/KG (TOTAL DOSE), Dose: 346, 574, 740 MG/KG (TOTAL DOSE), Tumor Site: Type of Lesion: MAMMARY GLAND: ADENOCARCINOMA, CARCINOMA, ADENOFIBROMA, THYMUS GLAND: LYMPHOSARCOMA, SPLEEN: LYMPHOSARCOMA, BRAIN: EPEND, Tumor Site: Type of Lesion: MAMMARY GLAND: ADENOCARCINOMA, CARCINOMA, ADENOFIBROMA, THYMUS GLAND: LYMPHOSARCOMA, SPLEEN: LYMPHOSARCOMA, BRAIN: EPEND): active; positive
carcinogen call (Species: RAT, Strain/Sex: SPRAGUE-DAWLEY/MALE, Route: ORAL, Dose: 608, 974 MG/KG (TOTAL DOSE), Tumor Site: Type of Lesion: MAMMARY GLAND: ADENOCARCINOMA, THYMUS GLAND: LYMPHOSARCOMA, SPLEEN: LYMPHOSARCOMA, Tumor Site: Type of Lesion: MAMMARY GLAND: ADENOCARCINOMA, THYMUS GLAND: LYMPHOSARCOMA, SPLEEN: LYMPHOSARCOMA): active; positive

NC(Cc1cnc[nH]1)C(=O)O (stereo not given)
carcinogen call (Species: RAT, Strain/Sex: F344/FEMALE, Route: ORAL, Dose: 0, 1.25, 2.5% IN DIET FOR 104 WK (STUDY DURATION: 107 WK), Dose: 0, 1.25, 2.5% IN DIET FOR 104 WK (STUDY DURATION: 107 WK)): inactive; negative
carcinogen call (Species: RAT, Strain/Sex: F344/MALE, Route: ORAL, Dose: 0, 1.25, 2.5% IN DIET FOR 104 WK (STUDY DURATION: 107 WK), Dose: 0, 1.25, 2.5% IN DIET FOR 104 WK (STUDY DURATION: 107 WK)): inactive; negative

C#C[C@]1(OC(C)=O)CC[C@H]2[C@@H]3CCC4=CC(=O)CC[C@@H]4[C@H]3CC[C@@]21C
carcinogen call (Species: MOUSE, Route: ORAL, Tumor Site: Type of Lesion: LIVER, PITUITARY GLAND): active; positive
carcinogen call [1]: active; positive

C=CC(=C)CCC=C(C)C
carcinogen call (Species: Mouse, Strain/Sex: B6C3F1 / Female (50/Group), Route: Oral, Dose: 0, 0.25, 0.5, 1 g/kg in corn oil, by gavage, 5 d/wk for 104-105 wk, Dose: 0, 0.25, 0.5, 1 g/kg in corn oil, by gavage, 5 d/wk for 104-105 wk): inactive; negative. (authors describe results as equivocal based on incidences of hepatoce
carcinogen call (Species: Mouse, Strain/Sex: B6C3F1 / Male (50/Group), Route: Oral, Dose: 0, 0.25, 0.5, 1 g/kg in corn oil, by gavage, 5 d/wk for 104-105 wk, Dose: 0, 0.25, 0.5, 1 g/kg in corn oil, by gavage, 5 d/wk for 104-105 wk, Tumor Site: Type of Lesion: Liver: hepatocellular adenoma (26/50, 41/50, 43/50), hepatocellular carcinoma (14/50, 20/50, 28/50), hepatocellular aden, Tumor Site: Type of Lesion: Liver: hepatocellular adenoma (26/50, 41/50, 43/50), hepatocellular carcinoma (14/50, 20/50, 28/50), hepatocellular aden): active; positive (authors describe as clear evidence)
carcinogen call (Species: Rat, Strain/Sex: F344/N / Female (50/Group), Route: Oral, Dose: 0, 0.25, 0.5, 1 g/kg in corn oil, by gavage, 5 d/wk for 105 wk, Dose: 0, 0.25, 0.5, 1 g/kg in corn oil, by gavage, 5 d/wk for 105 wk): inactive; negative. (authors describe findings as equivocal based on renal tubule adenoma
carcinogen call (Species: Rat, Strain/Sex: F344/N / Male (50/Group), Route: Oral, Dose: 0, 0.25, 0.5, 1 g/kg in corn oil, by gavage, 5 d/wk for 105 wk, Dose: 0, 0.25, 0.5, 1 g/kg in corn oil, by gavage, 5 d/wk for 105 wk, Tumor Site: Type of Lesion: Kidney: renal tubule adenoma (standard evaluation - 0/50, 4/50, 8/50, standard and extended evaluations combined - 0/50): active; positive (authors describe as clear evidence)

Nc1nc(=S)c2ncn([C@H]3C[C@H](O)[C@@H](CO)O3)c2[nH]1
carcinogen call (Species: RAT, Strain/Sex: SPRAGUE-DAWLEY/FEMALE, Route: INTRAPERITONEAL, Dose: 0, 3.5, 7 MG/KG FOR 52 WK (STUDY DURATION: 78 WK), Dose: 0, 3.5, 7 MG/KG FOR 52 WK (STUDY DURATION: 78 WK), Tumor Site: Type of Lesion: EAR (CANAL): CARCINOMA, NOS OR SQUAMOUS CELL CARCINOMA): active; positive
carcinogen call (Species: RAT, Strain/Sex: SPRAGUE-DAWLEY/MALE, Route: INTRAPERITONEAL, Dose: 0, 3.5, 7 MG/KG FOR 52 WK (STUDY DURATION: 78 WK), Dose: 0, 3.5, 7 MG/KG FOR 52 WK (STUDY DURATION: 78 WK), Tumor Site: Type of Lesion: EAR (CANAL): CARCINOMA OR SQUAMOUS CELL CARCINOMA): equivocal
